{
  "source": "patent US20130296370A1",
  "about": "“COMPOSITION COMPRISING A PHOTOACTIVATABLE LARVICIDE” (UNIVERSITA DEGLI STUDI DI PADOVA, priority 2010, published 2013)",
  "key": {"Aedes aegypti larvae": {"test_system": "Aedes aegypti larvae", "test": "C14 porphyrin toxicity in the dark", "assay_type": "in vivo", "conditions": "for emerged adults (%) / emerged adults (count) / adult % survival after light exposure: 5 μM C14; for emerged adults (%) / emerged adults (count): pooled data; for adult % survival after light exposure: 12 h-long irradiation 1.0-4.0 mW/cm^2", "protocol": "All the experiments were carried out in a climatic chamber at 28±2° C. with a regulated photoperiod of 12 hours. Transparent plastic trays, containing 500 ml C14 solutions or spring water were employed. Typically, 5±1 days old, 3rd-early 4th instar Aedes aegypti larvae were used. All the experiments were replicated three times.\nAt the end of the incubation period, dead and living larvae were counted in each tray. Larvae were then washed with tap water, and transferred to new trays containing spring water and PFP. Trays were kept in the dark until adults emerged. Adults were counted and exposed to light (intensity 1.0-4.0 mW/cm^2) for 12 hours, and their mortality was evaluated at the end of the irradiation period."}, "A. aegypti larvae": {"test_system": "A. aegypti larvae", "test": "Larvicidal efficacy of C14 porphyrin-loaded PFP", "assay_type": "in vivo", "conditions": "3 hours irradiation", "protocol": "Food particles (70 mg) were added at the time of introduction of the larvae (n=50, see methods for details). Arithmetic means of percent dead, dying and living larvae after 3 hours irradiation (intensity 1.0-4.0 mW/cm^2). Error bars represent standard deviations, (n=3 replicates of 50 larvae each).\nTrays containing 5 μM C14 porphyrin solution and 70 mg PFP (wherein PFP means powdered food pellet (PFP) with final particle diameter of 5-500 μm diameter obtained by crushing a standard food pellet for laboratory rodents, namely 4RF18 GLP (Mucedola Srl, Italy) using an electric blender and then sieving at mesh diameter 500 μm) were incubated at 28±2° C. for 5 days in the dark. The solution was then filtered using Whatman qualitative filter papers (Whatman International Ltd., UK). The eluted C14 solution was conserved, and the incubated PFP retained on the filter paper was washed with 10 ml distilled water before further use. Experimental groups were designed as follows: 1) filtered, C14-incubated PFP in spring water (group A); 2) C14 solution eluate, added with 70 mg fresh PFP (group B); 3) 5 μM C14 solution incubated without PFP for 5 days in the dark, added with 70 mg fresh PFP (group C); 4) freshly prepared 5 μM C14 solution, added with 70 mg PFP (group D); 5) spring water added with 70 mg fresh PFP (control group). Fifty larvae, fasted for 24 hours, were added to each tray and incubated in the dark for 12 hours. The treated or untreated PFP was added at the time of introduction of the larvae, in all the experimental groups. The trays were then exposed to a light intensity of 1.0-4.0 mW/cm^2 and dead, dying and living larvae were counted 1 to 3 hours after the beginning of the irradiation."}, "[1]": {"test": "Photostability of C14 porphyrin in aqueous medium", "assay_type": "physicochemical", "conditions": "2.5 μM in PBS; visible light 20 mW/cm^2 for up to 60 minutes", "protocol": "The photostability of the C14 porphyrin was determined in phosphate-buffered saline (PBS) upon illumination of a 2.5 μM porphyrin solution (initial absorbance around 0.5 at 424 nm) with white light (400-800 nm), which was isolated from the emission of a quartz-halogen lamp equipped with broad band filters to eliminate UV and infrared radiation. The light source was supplied by Teclas (Lugano, Switzerland), and operated at a fluence rate of 20 mW/cm^2. During irradiation the porphyrin solution was kept in agitation on a magnetic stirrer at room temperature. The concentration of the porphyrin in the aqueous solution was monitored spectrophotometrically at different irradiation times up to 60 min, and the photostability was expressed as the percent residual absorbance referred to the absorbance measured before irradiation.\nThe stability of C14 to the effect of full spectrum visible light was studied for a 2.5 μM porphyrin solution in PBS. The exposure of the porphyrin to visible light at a fluence rate of 20 mW/cm^2 for up to 60 minutes caused a decrease in the overall absorbance of less than 10%, which involved the whole set of bands in the blue, green and red spectral region. […]"}, "[2]": {"test": "Adsorption and release of C14 on powdered food pellet (PFP)", "assay_type": "physicochemical", "conditions": "70 mg PFP in 500 ml 5 μM C14, 28° C., dark", "protocol": "C14 appeared to remain stably associated with food particles. Specifically, the C14 concentrations in the incubation buffers ranged from 0.01 μM (pH 7.0) to 0.024 μM (pH 9.5), corresponding to a release of just 2.14%-5.15% of the initial C14 amount.\nA standard food pellet for laboratory rodents, namely 4RF18 GLP (Mucedola Srl, Italy), commonly used as mosquito larval food, was crushed using an electric blender and then sieved (mesh diameter 500 μm) to obtain powdered food pellet (PFP) with final particle diameter of 5-500 μm diameter. C14-PFP complexes were obtained by incubating PFP in C14 solutions. The loading of C14 on PFP and the dynamics of its release from the C14-PFP complexes in water were analysed by spectrophotometric quantification. Specifically, to evaluate the C14 binding rate on PFP, 70 mg of PFP were incubated in 500 ml of a 5 μM solution of C14, at 28° C. for 5 days, in the dark. The same C14 solution without PFP served as control. The amount of unbound porphyrin was then estimated by measuring the absorbance at 423 nm of the supernatant of aliquots of the solutions collected at various incubation times and centrifuged at 10,000 rpm for 10 minutes. […] The amount of porphyrin released in the media from the formulate complexes was measured as described above. […]"}, "[3]": {"conditions": "group B: C14 solution eluate with 70 mg fresh PFP"}},
  "data": [
    {"smiles": "CCCCCCCCCCCCCC[n+]1ccc(-c2c3nc(c(-c4cc[n+](C)cc4)c4ccc([nH]4)c(-c4cc[n+](C)cc4)c4nc(c(-c5cc[n+](C)cc5)c5ccc2[nH]5)C=C4)C=C3)cc1.Cc1ccc(S(=O)(=O)[O-])cc1.Cc1ccc(S(=O)(=O)[O-])cc1.Cc1ccc(S(=O)(=O)[O-])cc1.Cc1ccc(S(=O)(=O)[O-])cc1", "note": "[C14, meso-tri(N-methyl-pyridyl), mono(N-tetradecyl-pyridyl)porphine]", "values": [
      {"measurement": "emerged adults (%)", "setting": "Aedes aegypti larvae; dark incubation 3 hours", "result": "(97.9) %"},
      {"measurement": "emerged adults (count)", "setting": "Aedes aegypti larvae; dark incubation 3 hours", "result": "138/141"},
      {"measurement": "emerged adults (%)", "setting": "Aedes aegypti larvae; dark incubation 8 hours", "result": "(100) %"},
      {"measurement": "emerged adults (count)", "setting": "Aedes aegypti larvae; dark incubation 8 hours", "result": "128/128"},
      {"measurement": "emerged adults (%)", "setting": "Aedes aegypti larvae; dark incubation 24 hours", "result": "(97.9) %"},
      {"measurement": "emerged adults (count)", "setting": "Aedes aegypti larvae; dark incubation 24 hours", "result": "138/141"},
      {"measurement": "adult % survival after light exposure", "setting": "Aedes aegypti larvae; larval dark incubation 3 hours", "result": 100, "unit": "%"},
      {"measurement": "adult % survival after light exposure", "setting": "Aedes aegypti larvae; larval dark incubation 8 hours", "result": 100, "unit": "%"},
      {"measurement": "adult % survival after light exposure", "setting": "Aedes aegypti larvae; larval dark incubation 24 hours", "result": 100, "unit": "%"},
      {"measurement": "larval mortality in the dark", "setting": "Aedes aegypti larvae; 5 μM C14 solution, irrespectively of the duration of incubation", "result": "No mortality"},
      {"measurement": "dying larvae", "setting": "A. aegypti larvae; [3]", "result": 49.8, "unit": "%"},
      {"measurement": "mortality", "setting": "A. aegypti larvae; [3]", "result": 38.4, "unit": "%"},
      {"measurement": "mortality", "setting": "A. aegypti larvae; group C: 5 μM C14 solution incubated 5 days in the dark without PFP, fresh PFP added", "result": 78.2, "unit": "%"},
      {"measurement": "mortality", "setting": "A. aegypti larvae; group D: freshly prepared 5 μM C14 solution with 70 mg PFP", "result": 87.1, "unit": "%"},
      {"measurement": "decrease in the overall absorbance", "setting": "[1]", "result": "less than 10%"},
      {"measurement": "C14 bound to the PFP particles", "setting": "[2]; 24 hours", "result": 82, "unit": "%"},
      {"measurement": "C14 bound to the PFP particles", "setting": "[2]; 5 days", "result": 92, "unit": "%"}
    ]}
  ]
}
